From patent US6875582B1 (priority 1999, dated 2005) come the findings set out here.

Test [1] deals with WT K. pneumoniae Tim 19 (TEM-1 beta-lactamase). Format: cell-based, Klebsiella pneumoniae. Conditions: for Drug-Resistance Phenotype: WT K. pneumoniae Tim 19, TEM-1; for Resistance or sensitivity of clinical isolate: K. pneumoniae strain Tim 19 containing TEM-1 beta-lactamase.
Test [2] deals with K. pneumoniae Tim 19 CTX^R mutants. The test is described as follows: Multi-drug-resistance phenotype of CTX-selected mutants. Format: cell-based, Klebsiella pneumoniae. The settings on record: CTX^R mutants (8 analyzed), MNNG continuous culture, selected with CTX 2-550 μg/ml.
Test [3] concerns E. coli ATCC 11775. Format: cell-based.
Test [4] has as its system E. coli 11775 NA^R mutants. The test is described as follows: Antimicrobial disk-diffusion test (antibiogram) of clones selected on nalidixic acid gradient plates. Format: cell-based.

Each structure is given as a SMILES string.

As to `C[C@H]1[C@H](NC(=O)/C(=N\OC(C)(C)C(=O)O)c2csc(N)n2)C(=O)N1S(=O)(=O)O` [ATM, aztreonum], the “Drug-Resistance Phenotype” value in test [1] was “CTX^S, CAZ^S, FOX^S, ATM^S”; in test [2], “CTX^R, CAZ^R, FOX^R, ATM^R”.

For the compound `CC(C)(O/N=C(\C(=O)N[C@@H]1C(=O)N2C(C(=O)[O-])=C(C[n+]3ccccc3)CS[C@H]12)c1csc(N)n1)C(=O)O` [CAZ, ceftazidime], the “Resistance or sensitivity of clinical isolate” value (“Resistance or sensitivity” for short) in test [1] is reported as “sensitive”. In addition, the “Drug-Resistance Phenotype” value in test [1] is given as “CTX^S, CAZ^S, FOX^S, ATM^S”; in test [2] it was “CTX^R, CAZ^R, FOX^R, ATM^R”.

As for `CO/N=C(\C(=O)N[C@@H]1C(=O)N2C(C(=O)O)=C(COC(C)=O)CS[C@H]12)c1csc(N)n1` [CTX, cefotaxime], in test [1], the “Resistance or sensitivity” value is on record as “sensitive” and the “Drug-Resistance Phenotype” value is recorded as “CTX^S, CAZ^S, FOX^S, ATM^S”. Further, the “Drug-Resistance Phenotype” value in test [2] is listed as “CTX^R, CAZ^R, FOX^R, ATM^R”.

As to `CCOS(C)(=O)=O` [EMS, Ethyl Methanesulfonate], in test [3], the “Mutant Frequencies (NA^R phenotype)” value is on record as 1.2 × 10^−7 and the “Survival (%)” value is 64%.

Turning to `CO[C@@]1(NC(=O)Cc2cccs2)C(=O)N2C(C(=O)O)=C(COC(N)=O)CS[C@@H]21` [FOX, cefoxitin], in test [1], the “Resistance or sensitivity” value is “sensitive” and the “Drug-Resistance Phenotype” value is “CTX^S, CAZ^S, FOX^S, ATM^S”. Besides, the “Drug-Resistance Phenotype” value in test [2] is reported as “CTX^R, CAZ^R, FOX^R, ATM^R”.

Turning to `CCn1cc(C(=O)O)c(=O)c2ccc(C)nc21` [NA, nalidixic acid], the “Phenotype (nalidixic acid resistance)” value is on record as “Partially NA^R” in test [4] (mutant D2C2-a, EMS continuous culture, 82 generations, Gly-81→Cys); “Partially NA^R” in test [4] (mutant D2C2-h, EMS continuous culture, 62 generations, Gly-81→Cys); “Partially NA^R” in test [4] (mutant D2C2-l, EMS continuous culture, 62 generations, Gly-82 (GAC)→Asn); “Completely NA^R” in test [4] (mutant D3NX-E5, EMS continuous culture, 135 generations, Ser-83→Leu); “Completely NA^R” in test [4] (mutant D3NX-E6, EMS continuous culture, 135 generations, Ser-83→Leu); “Completely NA^R” in test [4] (mutant D7NX-E1, EMS continuous culture, 403 generations, Ser-83→Leu). Further, the “Phenotype (nalidixic acid resistance)” value in test [4] (mutant D7NX-E2, EMS continuous culture, 403 generations, Ser-83→Leu) is recorded as “Completely NA^R”; in test [4] (mutant NX-E09, EMS, batch culture, gyrA Asp-87→Ile), “Partially NA^R”; in test [4] (mutant NX-E10, EMS, batch culture, gyrA Ser-83→Leu), “Completely NA^R”; in test [4] (mutant NX-M3, MNNG, batch culture, gyrA Asp-87→Gly), “Partially NA^R”; in test [4] (mutant NX-M5, MNNG, batch culture, gyrA Asp-87→Asn), “Partially NA^R”; in test [4] (mutant NX-M6, MNNG, batch culture, gyrA Asp-87→Gly), “Partially NA^R”. In addition, the “Phenotype (nalidixic acid resistance)” value in test [4] (mutant NX-N6, NQO, batch culture, gyrA Ser-83→Leu) was “Completely NA^R”.

Take `O=[N+]([O-])c1cc[n+]([O-])c2ccccc12` [NQO, 4Nitroquinoline-lxide]: in test [3], the “Mutant Frequencies (NA^R phenotype)” value is on record as 0.6 × 10^−8 and the “Survival (%)” value came out at 77%.

With `CC1(C)S[C@@H]2[C@H](NC(=O)[C@H](N)c3ccccc3)C(=O)N2[C@H]1C(=O)O` [ampicillin], the “Resistance or sensitivity” value in test [1] was “resistance”.
